Reference: patent US20120004228A1, “Bis Aromatic Compounds for Use as LTC4 Synthase Inhibitors” (BIOLIPOX AB, priority 2009, published 2012)

Target: T1, Recombinant human LTC4 synthase (Homo sapiens, UniProt Q16873)
T1 construct: made in house; host or cells: Pichia pastoris ('Piccia pastoralis' [sic])
T1 sequence (Q16873 1-150): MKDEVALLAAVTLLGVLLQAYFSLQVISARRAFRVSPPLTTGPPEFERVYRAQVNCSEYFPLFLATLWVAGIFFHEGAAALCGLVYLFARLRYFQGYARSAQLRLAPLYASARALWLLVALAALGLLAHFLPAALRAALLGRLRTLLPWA
Assay: In vitro LTC4 synthase assay (LTA4 to LTC4, HTRF detection)
Format: biochemical
Procedure: In the assay, LTC4 synthase catalyses the reaction where the substrate LTA4 is converted to LTC4. Recombinant human LTC4 synthase is expressed in Piccia pastoralis and the purified enzyme is dissolved in 25 mM tris-buffer pH 7.8 supplemented with 0.1 mM glutathione (GSH) and stored at −80° C. The assay is performed in phosphate buffered saline (PBS) pH 7.4 and 5 mM GSH in 384-well plates.
The following is added chronologically to each well:
1. 48 μL LTC4 synthase in PBS with 5 mM GSH. The total protein concentration in this solution is 0.5 μg/mL. 2. 1 μL inhibitor in DMSO (final concentration 10 μM). 3. Incubation of the plate at room temperature for 10 min. 4. 1 μL LTA4 (final concentration 2.5 μM). 5. Incubation of the plate at room temperature for 5 min. 6. 10 μL of the incubation mixture is analysed using homogenous time resolved fluorescent (HTRF) detection.

Structure (SMILES)	IC50
CN(c1ccc(Cl)cc1)c1ccc(C(=O)c2cc(C(=O)O)cc(N(CC3(C)COC3)c3ccccc3)c2)cc1 [10:27, 3-{4-[(4-Chlorophenyl)(methyl)amino]benzoyl}-5-{[(3-methyloxetan-3-yl)-methyl](phenyl)amino}benzoic acid]	133 nM
CN(c1ccc(Cl)cc1)c1ccc(C(=O)c2cc(Cc3ccccc3)cc(C(=O)O)c2)nc1 [Example 13, 3-Benzyl-5-{5-[(4-chlorophenyl)(methyl)amino]picolinoyl}benzoic acid]	298 nM
CCN(c1ccccc1)c1cc(C(=O)O)cc(C(=O)c2ccc(N(C)c3ccc(Cl)cc3)cc2)c1 [10:19, 3-{4-[(4-Chlorophenyl)(methyl)amino]benzoyl}-5-[ethyl(phenyl)amino]benzoic acid]	33 nM
CN(c1ccc(Cl)cc1)c1ccc(C(=O)c2cc(Oc3cccc(OC(F)(F)F)c3)cc(C(=O)O)c2)cc1 [8:10, 3-{4-[(4-Chlorophenyl)(methyl)amino]benzoyl}-5-[3-(trifluoromethoxy)phenoxy]-benzoic acid]	171 nM
CCC(CC)C(=O)N(c1ccccc1)c1cc(C(=O)O)cc(C(=O)c2ccc(N(C)c3ccc(Cl)cc3)cc2)c1 [10:33, 3-{4-[(4-Chlorophenyl)(methyl)amino]benzoyl}-5-(2-ethyl-N-phenylbutan-amido)benzoic acid]	757 nM
CN(c1ccc(Cl)cc1)c1ccc(C(=O)c2cc(Nc3ccc4c(c3)OC(F)(F)O4)cc(C(=O)O)c2)cc1 [10:18, 3-{4-[(4-Chlorophenyl)(methyl)amino]benzoyl}-5-[3,4-(difluoromethylene-dioxy)phenylamino]benzoic acid]	105 nM
Cc1ccccc1Oc1cc(C(=O)O)cc(C(=O)c2ccc(N(C)c3ccc(Cl)cc3)cc2)c1 [8:17, 3-{4-[(4-Chlorophenyl)(methyl)amino]benzoyl}-5-(o-tolyloxy)benzoic acid]	198 nM
CN(c1ccc(Cl)cc1)c1ccc(C(=O)c2cc(C(=O)O)cc(N(C)c3ccc(Cl)cc3)c2)cc1 [Example 10:1, 3-[(4-Chlorophenyl)(methyl)amino]-5-{4-[(4-chlorophenyl)(methyl)amino]benzoyl}-benzoic acid]	41 nM
CN(c1ccc(Cl)cc1)c1ccc(C(=O)c2cc(C(=O)O)cc(N(CC3CCCCO3)c3ccccc3)c2)cc1 (stereo not shown) [10:36, 3-{4-[(4-Chlorophenyl)(methyl)amino]benzoyl}-5-{pheny[(tetrahydropyran-2-yl)methyl]amino}benzoic acid]	25 nM
COc1ccc(Nc2cc(C(=O)O)cc(C(=O)c3ccc(N(C)c4ccc(Cl)cc4)cn3)c2)cc1 [9:32, 3-{5-[(4-Chlorophenyl)(methyl)amino]picolinoyl}-5-(4-methoxyphenylamino)-benzoic acid]	353 nM
CN(c1ccc(Cl)cc1)c1ccc(C(=O)c2cc(Oc3ccc(F)c(F)c3)cc(C(=O)O)c2)cc1 [Example 8:9, 3-{4-[(4-Chlorophenyl)(methyl)amino]benzoyl}-5-(3,4-difluorophenoxy)benzoic acid]	30 nM
CN(c1ccc(Cl)cc1)c1ccc(C(=O)c2cc(Oc3ccc(Cl)cc3)cc(C(=O)O)c2)cc1 [8:21, 3-(4-Chlorophenoxy)-5-{4-[(4-chlorophenyl)(methyl)amino]benzoyl}benzoic acid]	49 nM
CN(c1ccc(Cl)cc1)c1ccc(C(=O)c2cc(Nc3cccc(Cl)c3)cc(C(=O)O)c2)nc1 [Example 9:2, 3-{5-[(4-Chlorophenyl)(methyl)amino]picolinoyl}-5-(3-chlorophenylamino)-benzoic acid]	248 nM
CN(c1ccc(Cl)cc1)c1ccc(C(=O)c2cc(C(=O)O)cc(C(=O)Nc3ccccc3)c2)cc1 [Example 2:11]	694 nM
CN(c1ccc(Cl)cc1)c1ccc(C(=O)c2cc(NCc3ccc(Cl)cc3Cl)cc(C(=O)O)c2)cc1 [10:14, 3-{4-[(4-Chlorophenyl)(methyl)amino]benzoyl}-5-(2,4-dichlorobenzylamino)-benzoic acid]	75 nM
CN(c1ccc(Cl)cc1)c1ccc(C(=O)c2cc(C(=O)O)cc(N(C(=O)C3CCC3)c3ccccc3)c2)cc1 [Example 10:31, 3-{4-[(4-Chlorophenyl)(methyl)amino]benzoyl}-5-[(N-phenyl)cyclobutylcarboxamido]benzoic acid]	277 nM
COCCN(c1cc(C(=O)O)cc(C(=O)c2ccc(N(C)c3ccc(Cl)cc3)cc2)c1)c1ccccc1F [10:25, 3-{4-[(4-Chlorophenyl)(methyl)amino]benzoyl}-5-[(2-fluorophenyl)(2-methoxy-ethyl)amino]benzoic acid]	76 nM
CN(c1ccc(Cl)cc1)c1ccc(C(=NO)c2cc(Oc3ccccc3)cc(C(=O)O)c2)cc1 (mixture of isomers) [Example 17, 3-({4-[(4-Chlorophenyl)(methyl)amino]phenyl}(hydroxyimino)methyl)-5-phenoxy-benzoic acid]	834 nM

Other lines, results leading:

IC50	Structure (SMILES)
70 nM	CN(c1ccc(Cl)cc1)c1ccc(C(=O)c2cc(C(=O)O)cc(N(CCCCO)c3ccc4c(c3)OCCO4)c2)nc1 [9:35, 3-{5-[(4-Chlorophenyl)(methyl)amino]picolinoyl}-5-[(3,4-ethylenedioxyphenyl)-(4-hydroxybutyl)amino]benzoic acid]
234 nM	CN(c1ccc(Cl)cc1)c1ccc(C(=O)c2cc(C(=O)O)cc(-c3ccccc3Cl)c2)nc1 [12:3, 2′-Chloro-5-{5-[(4-chlorophenyl)(methyl)amino]picolinoyl}biphenyl-3-carboxylic acid]
2550 nM	CC(=O)N(c1cc(C(=O)O)cc(C(=O)c2ccc(N(C)c3ccc(Cl)cc3)cn2)c1)C1CCOCC1 [9:44, 3-{5-[(4-Chlorophenyl)(methyl)amino]picolinoyl}-5-[N-(4-tetrahydropyranyl)-acetamido]benzoic acid]
31 nM	CN(c1ccc(Cl)cc1)c1ccc(C(=O)c2cc(C(=O)O)cc(N(CC(C)(C)O)c3ccccc3)c2)nc1 [Example 9:27, 3-{5-[(4-Chlorophenyl)(methyl)amino]picolinoyl}-5-[(2-hydroxy-2-methylpropyl)-(phenyl)amino]benzoic acid]
274 nM	COc1cccc(N(C)c2cc(C(=O)O)cc(C(=O)c3ccc(N(C)c4ccc(Cl)cc4)cn3)c2)c1 [9:21, 3-{5-[(4-Chlorophenyl)(methyl)amino]picolinoyl}-5-[(3-methoxyphenyl)(methyl)-amino]benzoic acid]
463 nM	CN(c1ccc(Cl)cc1)c1ccc(C(=O)c2cc(Nc3ccc4c(c3)OCCO4)cc(C(=O)O)c2)nc1 [9:33, 3-{5-[(4-Chlorophenyl)(methyl)amino]picolinoyl}-5-(3,4-ethylenedioxy-phenylamino)benzoic acid]
184 nM	CN(c1ccc(Cl)cc1)c1ccc(C(=O)c2cc(C(=O)O)cc(-c3cccc(Cl)c3)c2)nc1 [Example 12:1, 3′-Chloro-5-{5-[(4-chlorophenyl)(methyl)amino]picolinoyl}biphenyl-3-carboxylic acid]
33 nM	CN(c1ccc(Cl)cc1)c1ccc(C(=O)c2cc(C(=O)O)cc(N(C)c3ccccc3)c2)nc1 [9:6, 3-{5-[(4-Chlorophenyl)(methyl)amino]picolinoyl}-5-[methyl(phenyl)amino]-benzoic acid]
88 nM	COc1ccc(N(CC2(C)COC2)c2cc(C(=O)O)cc(C(=O)c3ccc(N(C)c4ccc(Cl)cc4)cn3)c2)cc1 [9:25, 3-{5-[(4-Chlorophenyl)(methyl)amino]picolinoyl}-5-{(4-methoxyphenyl)-[(3-methyloxetan-3-yl)methyl]amino}benzoic acid]
126 nM	CN(c1ccc(Cl)cc1)c1ccc(C(=O)c2cc(C(=O)O)cc(N(CCCCO)c3cccnc3)c2)nc1 [9:39, 3-{5-[(4-Chlorophenyl)(methyl)amino]picolinoyl}-5-[(4-hydroxybutyl)(3-pyridyl)-amino]benzoic acid]
160 nM	CN(c1ccc(Cl)cc1)c1ccc(C(=O)c2cc(C(=O)O)cc(N(C(=O)CC(C)(C)C)c3ccccc3)c2)nc1 [9:18, 3-{5-[(4-Chlorophenyl)(methyl)amino]picolinoyl}-5-(3,3-dimethyl-N-phenyl-butylamido)benzoic acid]
45 nM	CN(c1ccc(Cl)cc1)c1ccc(C(=O)c2cc(C(=O)O)cc(N(C)c3ccc(Cl)cc3)c2)nc1 [9:3, 3-[(4-Chlorophenyl)(methyl)amino]-5-{5-[(4-chlorophenyl)(methyl)amino]-picolinoyl}benzoic acid]
32 nM	CN(c1ccc(Cl)cc1)c1ccc(C(=O)c2cc(C(=O)O)cc(N(CC3CC3)c3ccccc3)c2)nc1 [Example 9:7, 3-{5-[(4-Chlorophenyl)(methyl)amino]picolinoyl}-5-[(cyclopropylmethyl)(phenyl)-amino]benzoic acid]
197 nM	CN(c1ccc(Cl)cc1)c1ccc(C(=O)c2cc(C(=O)O)cc(N(C)c3ccc4c(c3)OCO4)c2)nc1 [9:30, 3-{5-[(4-Chlorophenyl)(methyl)amino]picolinoyl}-5-[(3,4-methylenedioxy-phenyl)(methyl)amino]benzoic acid]
60 nM	CCOCCN(c1ccccc1)c1cc(C(=O)O)cc(C(=O)c2ccc(N(C)c3ccc(Cl)cc3)cn2)c1 [9:47, 3-{5-[(4-Chlorophenyl)(methyl)amino]picolinoyl}-5-[(2-ethoxyethyl)(phenyl)-amino]benzoic acid]
366 nM	COc1ccccc1N(C)c1cc(C(=O)O)cc(C(=O)c2ccc(N(C)c3ccc(Cl)cc3)cn2)c1 [9:22, 3-{5-[(4-Chlorophenyl)(methyl)amino]picolinoyl}-5-[(2-methoxyphenyl)(methyl)-amino]benzoic acid]
